# Results as given in publication PMC3672506, “A useful EGFR-TK ligand for tumor diagnosis with SPECT: development of radioiodinated 6-(3-morpholinopropoxy)-7-ethoxy-4-(3′-iodophenoxy)quinazoline” (Annals of Nuclear Medicine, 2013).
# Like-named read-outs stand apart in the source and are kept apart here.
# How the values were obtained:
# [1] = test system: A431 tumor; test: Tumor uptake of radioiodinated ligands in A431 tumor-bearing mice; type: in vivo, balb/c nude mice; conditions: for accumulation in tumors: i.v.
# Description: A suspension of 1 × 10^7 A431 cells in 0.1 mL of medium was inoculated subcutaneously in male balb/c nude mice (4 weeks old, 20–25 g, n = 3). After approximately 2 weeks, when the solid tumor had grown to optimal size, the mice were used for tumor uptake studies. [^125I]6a–d (37 kBq, 74 TBq/mmol) in 0.1 mL of saline was injected intravenously into tumor-bearing mice via the lateral tail vein. At 1 or 24 h after administration, the animals were sacrificed. Samples of tumor were excised and weighed. Radioactivity was measured using a well-type NaI(Tl) scintillation gamma counter. The results were expressed in terms of percentage of injected dose per gram of tumor.
# [2] = test system: A431 tumor; type: in vivo, balb/c nude mice; conditions: for Blood radioactivity / Brain radioactivity / Heart radioactivity / Kidney radioactivity / Liver radioactivity / Lung radioactivity / Muscle radioactivity / Pancreas radioactivity / Spleen radioactivity / Stomach radioactivity / Tumor radioactivity: A-431 tumor-bearing mice, i.v.
# Description: The animals were euthanized 1, 6, 12 or 24 h after injection of the radioligands (37 kBq, 74 TBq/mmol in 0.1 mL saline), and the distributions were studied as described above.
# In particular, the radioactivity accumulated in the liver 24 h after injection was approximately 1/50 of the radioactivity 1 h after injection. Thus, tumor-to-organ ratios for [^125I]PYK 24 h after injection had desirable values (Fig. 3b: tumor to lung: 8.5, tumor to kidney: 4.3, tumor to liver: 3.0) for tumor diagnostic imaging.
# [3] = A431 tumor-bearing mice, 24 h after injection
smiles,measurement,setting,value
CCOc1cc2ncnc(Oc3cccc([125I])c3)c2cc1OCCCN1CCOCC1 [[^125I]PYK],tumor accumulation relative to [125I]PHY,[1]; 1 h post injection,approximately 8 folds
same,retention in tumors (in words),[1]; [3],good retention
same,accumulation in tumors,"[1]; A431 tumor-bearing mice, 1 h post injection",4.37 ± 0.65 % ID/g tissue
same,accumulation in tumors,[1]; [3],1.53 ± 0.15 % ID/g tissue
same,liver radioactivity 24 h after injection relative to 1 h after injection,[2]; A431 tumor-bearing mice,approximately 1/50
same,tumor to kidney ratio,[2]; [3],4.3
same,tumor to liver ratio,[2]; [3],3.0
same,tumor to lung ratio,[2]; [3],8.5
same,tumor/blood ratio,[2]; [3],57.0
same,tumor/muscle ratio,[2]; [3],45.5
same,Blood radioactivity,[2]; 1 h after injection,0.80 ± 0.14 % injected dose per gram
same,Brain radioactivity,[2]; 1 h after injection,0.88 ± 0.07 % injected dose per gram
same,Heart radioactivity,[2]; 1 h after injection,1.19 ± 0.17 % injected dose per gram
same,Kidney radioactivity,[2]; 1 h after injection,7.40 ± 0.66 % injected dose per gram
same,Liver radioactivity,[2]; 1 h after injection,27.0 ± 1.29 % injected dose per gram
same,Lung radioactivity,[2]; 1 h after injection,4.14 ± 0.48 % injected dose per gram
same,Muscle radioactivity,[2]; 1 h after injection,1.34 ± 0.21 % injected dose per gram
same,Pancreas radioactivity,[2]; 1 h after injection,2.80 ± 0.19 % injected dose per gram
same,Spleen radioactivity,[2]; 1 h after injection,2.14 ± 0.04 % injected dose per gram
same,Stomach radioactivity,[2]; 1 h after injection,6.10 ± 2.08 % injected dose per gram
same,Tumor radioactivity,[2]; 1 h after injection,4.37 ± 0.65 % injected dose per gram
same,Blood radioactivity,[2]; 6 h after injection,0.20 ± 0.04 % injected dose per gram
same,Brain radioactivity,[2]; 6 h after injection,0.17 ± 0.03 % injected dose per gram
same,Heart radioactivity,[2]; 6 h after injection,0.50 ± 0.04 % injected dose per gram
same,Kidney radioactivity,[2]; 6 h after injection,3.53 ± 0.72 % injected dose per gram
same,Liver radioactivity,[2]; 6 h after injection,7.89 ± 1.45 % injected dose per gram
same,Lung radioactivity,[2]; 6 h after injection,2.29 ± 0.69 % injected dose per gram
same,Muscle radioactivity,[2]; 6 h after injection,0.39 ± 0.02 % injected dose per gram
same,Pancreas radioactivity,[2]; 6 h after injection,1.59 ± 0.25 % injected dose per gram
same,Spleen radioactivity,[2]; 6 h after injection,1.02 ± 0.18 % injected dose per gram
same,Stomach radioactivity,[2]; 6 h after injection,1.23 ± 0.60 % injected dose per gram
same,Tumor radioactivity,[2]; 6 h after injection,3.59 ± 0.73 % injected dose per gram
same,Blood radioactivity,[2]; 12 h after injection,0.06 ± 0.01 % injected dose per gram
same,Brain radioactivity,[2]; 12 h after injection,0.04 ± 0.01 % injected dose per gram
same,Heart radioactivity,[2]; 12 h after injection,0.14 ± 0.02 % injected dose per gram
same,Kidney radioactivity,[2]; 12 h after injection,1.06 ± 0.14 % injected dose per gram
same,Liver radioactivity,[2]; 12 h after injection,1.55 ± 0.32 % injected dose per gram
same,Lung radioactivity,[2]; 12 h after injection,0.61 ± 0.18 % injected dose per gram
same,Muscle radioactivity,[2]; 12 h after injection,0.09 ± 0.02 % injected dose per gram
same,Pancreas radioactivity,[2]; 12 h after injection,0.41 ± 0.06 % injected dose per gram
same,Spleen radioactivity,[2]; 12 h after injection,0.21 ± 0.01 % injected dose per gram
same,Stomach radioactivity,[2]; 12 h after injection,0.69 ± 0.51 % injected dose per gram
same,Tumor radioactivity,[2]; 12 h after injection,1.72 ± 0.42 % injected dose per gram
same,Blood radioactivity,[2]; 24 h after injection,0.03 ± 0.00 % injected dose per gram
same,Brain radioactivity,[2]; 24 h after injection,0.02 ± 0.00 % injected dose per gram
same,Heart radioactivity,[2]; 24 h after injection,0.05 ± 0.01 % injected dose per gram
same,Kidney radioactivity,[2]; 24 h after injection,0.36 ± 0.04 % injected dose per gram
same,Liver radioactivity,[2]; 24 h after injection,0.51 ± 0.35 % injected dose per gram
same,Lung radioactivity,[2]; 24 h after injection,0.18 ± 0.07 % injected dose per gram
same,Muscle radioactivity,[2]; 24 h after injection,0.03 ± 0.01 % injected dose per gram
same,Pancreas radioactivity,[2]; 24 h after injection,0.14 ± 0.02 % injected dose per gram
same,Spleen radioactivity,[2]; 24 h after injection,0.07 ± 0.03 % injected dose per gram
same,Stomach radioactivity,[2]; 24 h after injection,0.38 ± 0.19 % injected dose per gram
same,Tumor radioactivity,[2]; 24 h after injection,1.53 ± 0.15 % injected dose per gram
